This is an account of results in US10696629B2, “Crystalline form of dextral oxiracetam, preparation method therefor and use thereof” (CHONGQING RUNZE PHARMACEUTICAL COMPANY LIMITED, priority 2016, dated 2020).

What is called solubility is how much of the substance goes into solution per volume. Low values mean little dissolved substance, high ones much dissolved substance.

One series in a line: solubility in water. The series is classed as physicochemical.
A short description of series [1]: variable-temperature powder X-ray diffraction (crystal form stability at high temperatures). The series is classed as physicochemical. To be noted: heated from 30° C. to 80° C.; powder X-ray diffraction at 35, 45, 55, 65 and 75° C. On the procedure: The crystalline form III of dextral oxiracetam of the invention was placed on a single crystal silicon sample stage, heated from 30° C. to 80° C., and subjected to powder X-ray diffraction measurement at 35° C., 45° C., 55° C., 65° C. and 75° C., respectively. […] It can be seen that the crystalline form III of dextral oxiracetam of the invention has good stability at high temperatures. […] It can be confirmed that the crystalline form III of dextral oxiracetam is temperature stable. When the crystalline form III of dextral oxiracetam of the invention is used for storage or formulation processing, the requirements on processing and storage temperatures are reduced.

“Also recorded” adds a separate entry of the source.

`NC(=O)CN1C[C@H](O)CC1=O` [dextral oxiracetam] displayed a solubility in the series “solubility in water” of at least 100 mg/mL. Also, in series [1], the “crystal transformation on heating (stability at high temperatures)” value is recorded as “does not show a phenomenon of crystal transformation; also recorded: does not exhibit crystal transformation phenomenon”.
